The EC50 is the concentration needed to bring the measured effect to its halfway point.

The structures appear in SMILES notation. Where a name gives a salt, the structure may show the parent alone. Read-outs that look alike come from different tables or passages of the source.

Among the data in patent US11078216B2, “Bisaryl amides as NRF2 activators” (GLAXOSMITHKLINE INTELLECTUAL PROPERTY DEVELOPMENT LIMITED, priority 2016, dated 2021) are EC50 values, retold here.

For the assay, the system named is NRF2 (NQO1 activity as marker for NRF2 activation), BEAS-2B cells. Kind of assay: BEAS-2B NQO1 MTT Assay. In kind it is cell-based. The conditions noted are these: EC50 of NQO1 specific activity induction, 48 hours incubation, read-out: EC50. The procedure, abridged: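 As a marker of NRF2 activation, NQO1 specific activity was read from the rate of absorbance change at 570 nm in MTT cocktail over 30 minutes. Lysates came from BEAS-2B cells treated for 48 hours at 37° C, and EC50 was derived by 3-parameter fitting.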

In the case of `CC[C@@H]1CN(Cc2cc([C@H](CC(=O)Nc3cncnc3)c3ccc4c(nnn4CC)c3C)ccc2C)S(=O)(=O)c2cccnc2O1` [Example 109, (S)-3-(3-(((R)-4-Ethyl-1,1-dioxido-3,4-dihydro-2H-pyrido[2,3-b][1,4,5]oxathiazepin-2-yl)methyl)-4-methylphenyl)-3-(1-ethyl-4-methyl-1H-benzo[d][1,2,3]triazol-5-yl)-N-(pyrimidin-5-yl)propanamide], the EC50 (Homo sapiens) was in the range of 10 to 100 nM.
For the compound `CC[C@H]1Cc2ncccc2S(=O)(=O)N(Cc2cc([C@@H](c3ccc4c(nnn4CC)c3C)C(C)(C)C(=O)Nc3cncnc3)ccc2C)C1` [Example 95, (S)-3-(3-(((S)-4-Ethyl-1,1-dioxido-4,5-dihydropyrido[2,3-f][1,2]thiazepin-2(3H)-yl)methyl)-4-methylphenyl)-3-(1-ethyl-4-methyl-1H-benzo[d][1,2,3]triazol-5-yl)-2,2-dimethyl-N-(pyrimidin-5-yl)propanamide], the EC50 (Homo sapiens) lay within 1 to 10 nM.
`CC[C@@H]1CN(Cc2cc([C@H](CC(=O)NCCCOC)c3ccc4c(nnn4CC)c3C)ccc2C)S(=O)(=O)c2cccnc2O1` [Example 34, (S)-3-(3-(((R)-4-Ethyl-1,1-dioxido-3,4-dihydro-2H-pyrido[2,3-b][1,4,5]oxathiazepin-2-yl)methyl)-4-methylphenyl)-3-(1-ethyl-4-methyl-1H-benzo[d][1,2,3]triazol-5-yl)-N-(3-methoxypropyl)-propanamide]: for the setting “Homo sapiens”, the EC50 lay within 1000 to 10000 nM.
Take `CCCn1cc(CC[C@@H](c2ccc(C)c(CN3C[C@@H](CC)Oc4ccccc4S3(=O)=O)c2)C(C)(C)C(=O)Nc2cccnc2)nn1` [Example 82, (S)-3-(3-(((R)-4-Ethyl-1,1-dioxido-3,4-dihydro-2H-benzo[b][1,4,5]oxathiazepin-2-yl)methyl)-4-methylphenyl)-2,2-dimethyl-5-(1-propyl-1H-1,2,3-triazol-4-yl)-N-(pyridin-3-yl)pentanamide]: the EC50 (Homo sapiens) was 100 to 1000 nM.
On to `CCC1CCN(Cc2nccn2Cc2cc([C@@H](c3ccc4c(nnn4C)c3C)C(C)(C)C(=O)Nc3cccnc3)ccc2Cl)CC1` [Example 175, (S)-3-(4-chloro-3-((2-((4-ethylpiperidin-1-yl)methyl)-1H-imidazol-1-yl)methyl)phenyl)-3-(1,4-dimethyl-1H-benzo[d][1,2,3]triazol-5-yl)-2,2-dimethyl-N-(pyridin-3-yl)propanamide], for which, where the note is “Homo sapiens”, the EC50 was in the range of 100 to 1000 nM.
In the case of `CCCn1cc(CO[C@H](c2ccc(C)c(CN3C[C@@H](C)Cc4ccncc4S3(=O)=O)c2)C(C)(C)C(=O)Nc2cccnc2)nn1` [Example 54], the EC50 fell in the range of 10 to 100 nM.
`CCCn1cc(CO[C@H](c2ccc(C)c(CN3C[C@@H](C)Cc4ccc(C(F)(F)F)cc4S3(=O)=O)c2)C(C)(C)C(=O)Nc2cccnc2)nn1` [Example 52, (R)-2,2-Dimethyl-3-(4-methyl-3-(((S)-4-methyl-1,1-dioxido-8-(trifluoromethyl)-4,5-dihydrobenzo[f][1,2]thiazepin-2(3H)-yl)methyl)phenyl)-3-((1-propyl-1H-1,2,3-triazol-4-yl)methoxy)-N-(pyridin-3-yl)propanamide]: the EC50 (Homo sapiens) is 1 to 10 nM.
On to `CC[C@@H]1CN(Cc2cc([C@H](CC(=O)NCc3nccn3C)c3ccc4c(nnn4CC)c3C)ccc2C)S(=O)(=O)c2cccnc2O1` [Example 16, (S)-3-(3-(((R)-4-Ethyl-1,1-dioxido-3,4-dihydro-2H-pyrido[2,3-b][1,4,5]oxathiazepin-2-yl)methyl)-4-methylphenyl)-3-(1-ethyl-4-methyl-1H-benzo[d][1,2,3]triazol-5-yl)-N-((1-methyl-1H-imidazol-2-yl)methyl)propanamide], for which the EC50 (Homo sapiens) lay in the range of 1000 to 10000 nM.
The same measure, in the same setting: the same measure for `CC[C@@H]1CN(Cc2cc([C@@H](c3ccc4c(nnn4CC)c3C)C(C)(C)C(N)=O)ccc2C)S(=O)(=O)c2ccccc2O1` [Example 87, (S)-3-(3-(((R)-4-Ethyl-1,1-dioxido-3,4-dihydro-2H-benzo[b][1,4,5]oxathiazepin-2-yl)methyl)-4-methylphenyl)-3-(1-ethyl-4-methyl-1H-benzo[d][1,2,3]triazol-5-yl)-2,2-dimethylpropanamide]: 1 to 10 nM; for `CC[C@@H]1CN(Cc2cc([C@H](CC(=O)Nc3cccnc3)c3ccc4c(nnn4CC)c3C)ccc2Cl)S(=O)(=O)c2cccnc2O1` [Example 110, (S)-3-(4-Chloro-3-(((R)-4-ethyl-1,1-dioxido-3,4-dihydro-2H-pyrido[2,3-b][1,4,5]oxathiazepin-2-yl)methyl)phenyl)-3-(1-ethyl-4-methyl-1H-benzo[d][1,2,3]triazol-5-yl)-N-(pyridin-3-yl)propanamide]: 10 to 100 nM.
Take `CC[C@H]1Cc2cccc(C(F)(F)F)c2CN(Cc2cc([C@@H](c3ccc4c(nnn4CC)c3C)C(C)(C)C(N)=O)ccc2C)C1` [Example 183, (S)-3-(1-ethyl-4-methyl-1H-benzo[d][1,2,3]triazol-5-yl)-3-(3-(((S)-4-ethyl-9-(trifluoromethyl)-4,5-dihydro-1H-benzo[c]azepin-2(3H)-yl)methyl)-4-methylphenyl)-2,2-dimethylpropanamide]: for the setting “Homo sapiens”, the EC50 lay in the range of 100 to 1000 nM.
Same read-out and setting: the result for `CC[C@@H]1CN(Cc2cc([C@@H](c3ccc4c(nnn4CC)c3C)C(C)(C)C(=O)NC(C)(C)C(=O)O)ccc2C)S(=O)(=O)c2ccccc2O1` [Example 207, 2-((S)-3-(3-(((R)-4-ethyl-1,1-dioxido-3,4-dihydro-2H-benzo[b][1,4,5]oxathiazepin-2-yl)methyl)-4-methylphenyl)-3-(1-ethyl-4-methyl-1H-benzo[d][1,2,3]triazol-5-yl)-2,2-dimethylpropanamido)-2-methylpropanoic acid] reads 100 to 1000 nM.
As to `CC[C@@H]1CN(Cc2cc([C@H](CC(=O)Nc3cnccc3OC)c3ccc4c(nnn4CC)c3C)ccc2C)S(=O)(=O)c2cccnc2O1` [Example 11, (S)-3-(3-(((R)-4-Ethyl-1,1-dioxido-3,4-dihydro-2H-pyrido[2,3-b][1,4,5]oxathiazepin-2-yl)methyl)-4-methylphenyl)-3-(1-ethyl-4-methyl-1H-benzo[d][1,2,3]triazol-5-yl)-N-(4-methoxypyridin-3-yl)propanamide], where the note is “Homo sapiens”, the EC50 was in the range of 10 to 100 nM.
The same measure, in the same setting: the result for `CCn1cc(CO[C@H](c2ccc(C)c(CN3C[C@@H](C)Cc4ccccc4S3(=O)=O)c2)C(C)(C)C(=O)Nc2cccnc2)nn1` [Example 49, (R)-3-((1-Ethyl-1H-1,2,3-triazol-4-yl)methoxy)-2,2-dimethyl-3-(4-methyl-3-(((S)-4-methyl-1,1-dioxido-4,5-dihydrobenzo[f][1,2]thiazepin-2(3H)-yl)methyl)phenyl)-N-(pyridin-3-yl)propanamide, Formic acid salt] reads 100 to 1000 nM; that for `CC[C@@H]1CN(Cc2cc([C@H](CC(=O)NCCOC)c3ccc4c(nnn4CC)c3C)ccc2C)S(=O)(=O)c2cccnc2O1` [Example 41, (S)-3-(3-(((R)-4-Ethyl-1,1-dioxido-3,4-dihydro-2H-pyrido[2,3-b][1,4,5]oxathiazepin-2-yl)methyl)-4-methylphenyl)-3-(1-ethyl-4-methyl-1H-benzo[d][1,2,3]triazol-5-yl)-N-(2-methoxyethyl)propanamide], 100 to 1000 nM.
Consider `CC[C@@H]1CN(Cc2cc([C@@H](c3ccc4c(nnn4CC)c3C)C(C)(C)C(=O)Nc3cnc(OCCNC(=O)OC(C)(C)C)nc3)ccc2C)S(=O)(=O)c2ccccc2O1` [Example 191, tert-Butyl (2-((5-((S)-3-(3-(((R)-4-ethyl-1,1-dioxido-3,4-dihydro-2H-benzo[b]-[1,4,5]oxathiazepin-2-yl)methyl)-4-methylphenyl)-3-(1-ethyl-4-methyl-1H-benzo[d][1,2,3]triazol-5-yl)-2,2-dimethylpropanamido)pyrimidin-2-yl)oxy)-ethyl)carbamate], for which the EC50 (Homo sapiens) fell in the range of 10 to 100 nM.
For the compound `CC[C@@H]1CN(Cc2cc([C@H](CC(=O)NC3CN(C)C3)c3ccc4c(nnn4CC)c3C)ccc2C)S(=O)(=O)c2cccnc2O1` [Example 24, (S)-3-(3-(((R)-4-Ethyl-1,1-dioxido-3,4-dihydro-2H-pyrido[2,3-b][1,4,5]oxathiazepin-2-yl)methyl)-4-methylphenyl)-3-(1-ethyl-4-methyl-1H-benzo[d][1,2,3]triazol-5-yl)-N-(1-methylazetidin-3-yl)propanamide], the EC50 (Homo sapiens) lay in the range of 1000 to 10000 nM.
Consider `CC[C@@H]1CN(Cc2cc([C@@H](c3ccc4c(nnn4CC)c3C)C(C)(C)NC(=O)c3ccco3)ccc2C)S(=O)(=O)c2ccccc2O1` [Example 136, N-((S)-1-(3-(((R)-4-Ethyl-1,1-dioxido-3,4-dihydro-2H-benzo[b][1,4,5]oxathiazepin-2-yl)methyl)-4-methylphenyl)-1-(1-ethyl-4-methyl-1H-benzo[d][1,2,3]triazol-5-yl)-2-methylpropan-2-yl)furan-2-carboxamide], for which the EC50 (Homo sapiens) was 100 to 1000 nM.
Consider `CC[C@@H]1CN(Cc2cc([C@H](CC(=O)NCC(N)=O)c3ccc4c(nnn4CC)c3C)ccc2C)S(=O)(=O)c2cccnc2O1` [Example 35, (S)—N-(2-Amino-2-oxoethyl)-3-(3-(((R)-4-ethyl-1,1-dioxido-3,4-dihydro-2H-pyrido[2,3-b][1,4,5]oxathiazepin-2-yl)methyl)-4-methylphenyl)-3-(1-ethyl-4-methyl-1H-benzo[d][1,2,3]triazol-5-yl)propanamide], for which, for the setting “Homo sapiens”, the EC50 lay in the range of 1000 to 10000 nM.
Consider `CC[C@@H]1CN(Cc2cc([C@@H](c3ccc4c(nnn4CC)c3C)C(C)(C)C(=O)N[C@H]3CCOC3)ccc2C)S(=O)(=O)c2cccnc2O1` [Example 113, (S)-3-(3-(((R)-4-Ethyl-1,1-dioxido-3,4-dihydro-2H-pyrido[2,3-b][1,4,5]oxathiazepin-2-yl)methyl)-4-methylphenyl)-3-(1-ethyl-4-methyl-1H-benzo[d][1,2,3]triazol-5-yl)-2,2-dimethyl-N-((S)-tetrahydrofuran-3-yl)propanamide], for which the EC50 (Homo sapiens) was in the range of 10 to 100 nM.
Turning to `CC[C@@H]1CN(Cc2cc([C@@H](c3ccc4c(nnn4CC)c3C)C(C)(C)NC(=O)c3cnc(N(C)C)nc3)ccc2C)S(=O)(=O)c2ccccc2O1` [Example 162], the EC50 (Homo sapiens) was in the range of 10 to 100 nM.
